Results from PMC5926251 (Japanese Journal of Cancer Research : Gann, 2000).
Converted amounts (≈) assume the structure as drawn. “And” between values parts separate entries of the source, which are not always exact repeats. Equal values may be shown once. Read-outs that look alike come from different tables or passages of the source.

What was measured:
[1] = biological target: T1, DNA polymerase α (Bos taurus, UniProt A0AAA9TD94); assay: DNA polymerase assay, pol. α; assay type: biochemical, calf; conditions: Table I; for IC50: 50%-inhibitory concentration; for MIC Pol. α: Minimum inhibitory concentration: dose that resulted in inhibition of 80% or more of the activity
T1 sequence (A0AAA9TD94 1-1441): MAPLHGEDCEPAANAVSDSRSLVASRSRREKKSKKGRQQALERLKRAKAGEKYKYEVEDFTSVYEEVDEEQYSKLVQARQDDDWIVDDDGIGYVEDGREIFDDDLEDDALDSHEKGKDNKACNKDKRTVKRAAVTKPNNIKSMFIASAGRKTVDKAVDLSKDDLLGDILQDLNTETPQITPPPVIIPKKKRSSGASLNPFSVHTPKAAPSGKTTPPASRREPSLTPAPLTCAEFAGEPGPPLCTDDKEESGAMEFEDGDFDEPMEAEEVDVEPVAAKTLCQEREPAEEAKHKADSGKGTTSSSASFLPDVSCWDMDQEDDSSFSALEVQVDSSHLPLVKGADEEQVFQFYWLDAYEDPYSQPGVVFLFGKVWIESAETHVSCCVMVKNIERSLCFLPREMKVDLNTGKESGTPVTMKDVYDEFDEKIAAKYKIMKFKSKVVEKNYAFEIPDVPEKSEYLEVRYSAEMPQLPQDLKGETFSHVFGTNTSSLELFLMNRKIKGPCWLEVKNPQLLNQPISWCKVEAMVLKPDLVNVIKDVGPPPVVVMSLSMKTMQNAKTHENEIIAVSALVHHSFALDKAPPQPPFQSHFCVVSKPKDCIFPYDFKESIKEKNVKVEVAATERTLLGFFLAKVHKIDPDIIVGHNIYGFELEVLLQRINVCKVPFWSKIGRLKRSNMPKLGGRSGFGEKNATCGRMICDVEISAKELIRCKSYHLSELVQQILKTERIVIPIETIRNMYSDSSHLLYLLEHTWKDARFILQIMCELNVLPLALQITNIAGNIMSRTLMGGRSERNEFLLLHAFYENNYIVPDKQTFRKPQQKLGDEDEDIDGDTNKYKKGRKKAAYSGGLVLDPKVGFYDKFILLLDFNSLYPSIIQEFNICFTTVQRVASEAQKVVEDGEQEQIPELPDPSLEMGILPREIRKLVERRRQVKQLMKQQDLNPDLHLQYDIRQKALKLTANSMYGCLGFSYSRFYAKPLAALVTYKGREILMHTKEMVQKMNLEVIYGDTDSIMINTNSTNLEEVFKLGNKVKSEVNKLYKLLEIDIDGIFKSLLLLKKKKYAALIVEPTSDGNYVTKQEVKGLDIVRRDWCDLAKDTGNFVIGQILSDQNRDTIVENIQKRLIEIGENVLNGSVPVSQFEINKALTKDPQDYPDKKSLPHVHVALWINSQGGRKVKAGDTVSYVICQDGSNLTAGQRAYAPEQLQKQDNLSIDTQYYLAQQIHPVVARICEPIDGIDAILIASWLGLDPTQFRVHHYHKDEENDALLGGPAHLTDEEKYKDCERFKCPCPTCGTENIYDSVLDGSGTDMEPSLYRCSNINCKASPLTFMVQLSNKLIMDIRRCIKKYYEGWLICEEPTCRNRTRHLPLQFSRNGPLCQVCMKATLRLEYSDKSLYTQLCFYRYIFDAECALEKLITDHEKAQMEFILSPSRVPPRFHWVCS

[2] = biological target: DNA polymerase β (Rattus norvegicus, UniProt P06766); assay: DNA polymerase assay, pol. β; assay type: biochemical; conditions: for MIC Pol. β: Minimum inhibitory concentration: dose that resulted in inhibition of 80% or more of the activity
[3] = read-out: IC50 Pol. β, 50%-inhibitory concentration, Table I

| Structure (SMILES) | IC50 ([1]; IC50 Pol. α) | IC50 [2] [µM] | IC50 ([1]; read-out: IC50 Pol. α) [µM] | IC50 [2, 3] [µM] | MIC Pol. α [1] [µM] | MIC Pol. β ([2]; Table I) [µM] |
| --- | --- | --- | --- | --- | --- | --- |
| C[C@H]1OC(O)[C@H](O)[C@@H](O)[C@@H]1O (stereo partly shown) [II - Quinovose - -, Quinovose] | > 1000 µM | > 1000 |  |  |  |  |
| C[C@@H]1OC(O)[C@H](O)[C@H](O)[C@H]1O (stereo partly shown) [II - Rhamnose - -, Rhamnose] |  |  | > 1000 | > 1000 |  |  |
| C[C@@H]1OC(OCC(O)CO)[C@@H](O)[C@H](O)[C@@H]1O (stereo partly shown) [II&III - Fucose + -] |  |  | > 1000 | > 1000 |  |  |
| C[C@H]1OC(OCC(O)CO)[C@H](O)[C@@H](O)[C@@H]1O (stereo partly shown) [II&III - Quinovose + -] |  |  | > 1000 | > 1000 |  |  |
| C[C@@H]1OC(OCC(O)CO)[C@H](O)[C@H](O)[C@H]1O (stereo partly shown) [II&III - Rhamnose + -] |  |  | > 1000 | > 1000 |  |  |
| CCCCCCCCCCCCCC(=O)OCC(O)CO (stereo not shown) [III&IV - - + Myristic acid (14:0)/H] |  |  | 750 | > 1000 | > 1000 |  |
| CCCCCCCCCCCCCCCCCC(=O)OCC(O)CO (stereo not shown) [III&IV - - + Stearic acid (18:0)/H] |  |  | 650 | > 1000 | > 1000 |  |
| CCCCCCCCCCCCCC(=O)O [Myristic acid (14:0), Myristic acid, reference compound] | 95 µM | 440 |  |  | 180 (≈ 41.1 µg/mL) | > 1000 |
| CCCCCCCCCCCCCCCC(=O)O [Palmitic acid (16:0), Palmitic acid, reference compound] | 42 µM | 290 |  |  | 100 (≈ 25.6 µg/mL) | 500 (≈ 128 µg/mL) |
| CCCCCCCCCCCCCCCCCC(=O)O [Stearic acid (18:0), Stearic acid, reference compound] | 12 µM and 8 µM | 130 |  |  | 35 (≈ 9.96 µg/mL) | 250 (≈ 71.1 µg/mL) |
